Assays:
Carboplatin = compound: C1CC(C1)(C(=O)[O-])C(=O)[O-].N.N.[Pt+2] [Carboplatin]; settings: max 10 µM
Summary of the method: (§1)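 Plates with 1536 wells received cancer cell lines in 7.5 μl of DMEM/F12 or RPMI containing 10% FBS. After 24 hours at 37°C and 5% CO2, cells were dosed for 72 hours with final DMSO typically 0.2%, and viability was read by CellTiter-Glo 2.0 luminescence scaled between blank-well and DMSO-well means. The single-agent IC50 was taken from a logistic fit of the dose responses made with a non-linear mixed effects model, that logistic curve having two parameters.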

AZD5363 = compound: C1CN(CCC1(C(=O)N[C@@H](CCO)C2=CC=C(C=C2)Cl)N)C3=NC=NC4=C3C=CN4 [AZD5363]; settings: max 10 µM
Summary of the method: as §1

AZD1775 = compound: C=CCn1c(=O)c2cnc(Nc3ccc(N4CCN(C)CC4)cc3)nc2n1-c1cccc(C(C)(C)O)n1 [AZD1775]; settings: max 3 µM
Summary of the method: as §1

Trametinib = compound: CC(=O)Nc1cccc(-n2c(=O)n(C3CC3)c(=O)c3c(Nc4ccc(I)cc4F)n(C)c(=O)c(C)c32)c1 [Trametinib]; settings: max 1 µM
Summary of the method: as §1

Paclitaxel = compound: CC(=O)O[C@H]1C(=O)[C@@]2(C)[C@H]([C@H](OC(=O)c3ccccc3)[C@]3(O)C[C@H](OC(=O)[C@H](O)[C@@H](NC(=O)c4ccccc4)c4ccccc4)C(C)=C1C3(C)C)[C@]1(OC(C)=O)CO[C@@H]1C[C@@H]2O [Paclitaxel]; settings: max 3 µM
Summary of the method: as §1

Palbociclib = compound: CC(=O)c1c(C)c2cnc(Nc3ccc(N4CCNCC4)cn3)nc2n(C2CCCC2)c1=O [Palbociclib]; settings: max 10 µM
Summary of the method: as §1

AZD1390 = compound: CC(C)n1c(=O)n(C)c2cnc3cc(F)c(-c4ccc(OCCCN5CCCCC5)nc4)cc3c21 [AZD1390]; settings: max 0.3 µM
Summary of the method: as §1

Venetoclax = compound: CC1(C)CCC(CN2CCN(c3ccc(C(=O)NS(=O)(=O)c4ccc(NCC5CCOCC5)c([N+](=O)[O-])c4)c(Oc4cnc5[nH]ccc5c4)c3)CC2)=C(c2ccc(Cl)cc2)C1 [Venetoclax]; settings: max 1 µM
Summary of the method: as §1

Dasatinib = compound: CC1=C(C(=CC=C1)Cl)NC(=O)C2=CN=C(S2)NC3=CC(=NC(=N3)C)N4CCN(CC4)CCO [Dasatinib]; settings: max 2 µM
Summary of the method: as §1

SG3199 = compound: CC1=CN2[C@@H](C1)C=NC3=CC(=C(C=C3C2=O)OC)OCCCCCOC4=C(C=C5C(=C4)N=C[C@@H]6CC(=CN6C5=O)C)OC [SG3199]; settings: max 0.001 µM
Summary of the method: as §1

AZD2811 = compound: CCN(CCO)CCCOc1ccc2c(Nc3cc(CC(=O)Nc4cccc(F)c4)[nH]n3)ncnc2c1 [AZD2811]; settings: max 1 µM
Summary of the method: as §1

SN-38 = compound: CCc1c2c(nc3ccc(O)cc13)-c1cc3c(c(=O)n1C2)COC(=O)[C@]3(O)CC [SN-38]; settings: max 0.3 µM
Summary of the method: as §1

AZD0156 = compound: CN(C)CCCOc1ccc(-c2ccc3ncc4c(c3c2)n(C2CCOCC2)c(=O)n4C)cn1 [AZD0156]; settings: max 3 µM
Summary of the method: as §1

AZD4320 = compound: CN(CC[C@H](CSC1=CC=CC=C1)NC2=C(C=C(C=C2)S(=O)(=O)NC(=O)C3=CC=C(C=C3)N4CCC(CC4)[C@H](C5=CC=CC=C5C6=CC=C(C=C6)Cl)O)S(=O)(=O)C(F)(F)F)CCO [AZD4320]; settings: max 1 µM
Summary of the method: as §1

Alisertib = compound: COc1cc(Nc2ncc3c(n2)-c2ccc(Cl)cc2C(c2c(F)cccc2OC)=NC3)ccc1C(=O)O [Alisertib]; settings: max 10 µM
Summary of the method: as §1

Etoposide = compound: COc1cc([C@@H]2c3cc4c(cc3[C@@H](O[C@@H]3O[C@@H]5CO[C@@H](C)O[C@H]5[C@H](O)[C@H]3O)[C@H]3COC(=O)[C@H]23)OCO4)cc(OC)c1O [Etoposide]; settings: max 10 µM
Summary of the method: as §1

Gefitinib = compound: COc1cc2ncnc(Nc3ccc(F)c(Cl)c3)c2cc1OCCCN1CCOCC1 [Gefitinib]; settings: max 10 µM
Summary of the method: as §1

Prexasertib = compound: COc1cccc(OCCCN)c1-c1cc(Nc2cnc(C#N)cn2)n[nH]1 [Prexasertib]; settings: max 1 µM
Summary of the method: as §1

Doxorubicin = compound: COc1cccc2c1C(=O)c1c(O)c3c(c(O)c1C2=O)C[C@@](O)(C(=O)CO)C[C@@H]3O[C@H]1C[C@H](N)[C@H](O)[C@H](C)O1 [Doxorubicin]; settings: max 1 µM
Summary of the method: as §1

AZD5153 = compound: COc1nnc2ccc(N3CCC(c4ccc(OCCN5CCN(C)C(=O)[C@H]5C)cc4)CC3)nn12 [AZD5153]; settings: max 1 µM
Summary of the method: as §1

Lapatinib = compound: CS(=O)(=O)CCNCc1ccc(-c2ccc3ncnc(Nc4ccc(OCc5cccc(F)c5)c(Cl)c4)c3c2)o1 [Lapatinib]; settings: max 10 µM
Summary of the method: as §1

AZD8186 = compound: C[C@@H](Nc1cc(F)cc(F)c1)c1cc(C(=O)N(C)C)cc2c(=O)cc(N3CCOCC3)oc12 [AZD8186]; settings: max 10 µM
Summary of the method: as §1

Crizotinib = compound: C[C@@H](Oc1cc(-c2cnn(C3CCNCC3)c2)cnc1N)c1c(Cl)ccc(F)c1Cl [Crizotinib]; settings: max 10 µM
Summary of the method: as §1

Savolitinib = compound: C[C@@H](c1ccc2nccn2c1)n1nnc2ncc(-c3cnn(C)c3)nc21 [Savolitinib]; settings: max 1 µM
Summary of the method: as §1

AZD6738 = compound: C[C@@H]1COCCN1C2=NC(=NC(=C2)C3(CC3)[S@](=N)(=O)C)C4=C5C=CNC5=NC=C4 [AZD6738]; settings: max 10 µM
Summary of the method: as §1

AZD5991 = compound: Cc1c2c(nn1C)CSCc1cc(n(C)n1)CSc1cc(c3ccccc3c1)OCCCc1c(C(=O)O)n(C)c3c-2c(Cl)ccc13 [AZD5991]; settings: max 1 µM
Summary of the method: as §1

AZD7648 = compound: Cc1cc2ncnn2cc1Nc1ncc2c(n1)n(C1CCOCC1)c(=O)n2C [AZD7648]; settings: max 10 µM
Summary of the method: as §1

Taselisib = compound: Cc1nc(-c2cn3c(n2)-c2ccc(-c4cnn(C(C)(C)C(N)=O)c4)cc2OCC3)n(C(C)C)n1 [Taselisib]; settings: max 10 µM
Summary of the method: as §1

Selumetinib = compound: Cn1cnc2c(F)c(Nc3ccc(Br)cc3Cl)c(C(=O)NOCCO)cc21 [Selumetinib]; settings: max 10 µM
Summary of the method: as §1

SRA737 = compound: N#Cc1cnc(Nc2cc(NC[C@H]3CNCCO3)c(C(F)(F)F)cn2)cn1 [SRA737]; settings: max 10 µM
Summary of the method: as §1

MK-2206 = compound: NC1(c2ccc(-c3nc4ccn5c(=O)[nH]nc5c4cc3-c3ccccc3)cc2)CCC1 [MK-2206]; settings: max 10 µM
Summary of the method: as §1

Gemcitabine = compound: Nc1ccn([C@@H]2O[C@H](CO)[C@@H](O)C2(F)F)c(=O)n1 [Gemcitabine]; settings: max 0.3 µM
Summary of the method: as §1

[1] = compound: O=C(Nc1ccc2[nH]nc(-c3ccncc3)c2c1)[C@@H]1CCN(CC(=O)N2CCN(c3ccc(-c4ncccn4)cc3)CC2)C1; settings: max 5 µM
Summary of the method: as §1

Olaparib = compound: O=C(c1cc(Cc2n[nH]c(=O)c3ccccc23)ccc1F)N1CCN(C(=O)C2CC2)CC1 [Olaparib]; settings: max 10 µM
Summary of the method: as §1

5-Fluorouracil = compound: O=c1[nH]cc(F)c(=O)[nH]1 [5-Fluorouracil]; settings: max 20 µM
Summary of the method: as §1

## SBC-3 (Small Cell Lung Carcinoma)
Carboplatin
  IC50, cell viability 72 h: > 10 µM
AZD5363
  IC50, cell viability 72 h: > 10 µM
AZD1775
  IC50, cell viability 72 h: 0.822 µM
Trametinib
  IC50, cell viability 72 h: > 1 µM
Paclitaxel
  IC50, cell viability 72 h: 0.0038 µM
Palbociclib
  IC50, cell viability 72 h: 4.82 µM
AZD1390
  IC50, cell viability 72 h: > 0.3 µM
Venetoclax
  IC50, cell viability 72 h: > 1 µM
Dasatinib
  IC50, cell viability 72 h: > 2 µM
SG3199
  IC50, cell viability 72 h: > 0.001 µM
AZD2811
  IC50, cell viability 72 h: 0.636 µM
SN-38
  IC50, cell viability 72 h: 0.00225 µM
AZD0156
  IC50, cell viability 72 h: > 3 µM
AZD4320
  IC50, cell viability 72 h: > 1 µM
Alisertib
  IC50, cell viability 72 h: 0.421 µM
Etoposide
  IC50, cell viability 72 h: 0.313 µM
Gefitinib
  IC50, cell viability 72 h: > 10 µM
Prexasertib
  IC50, cell viability 72 h: 0.136 µM
Doxorubicin
  IC50, cell viability 72 h: 0.0717 µM
AZD5153
  IC50, cell viability 72 h: 0.0646 µM
Lapatinib
  IC50, cell viability 72 h: > 10 µM
AZD8186
  IC50, cell viability 72 h: > 10 µM
Crizotinib
  IC50, cell viability 72 h: 3.45 µM
Savolitinib
  IC50, cell viability 72 h: > 1 µM
AZD6738
  IC50, cell viability 72 h: 5.85 µM
AZD5991
  IC50, cell viability 72 h: > 1 µM
AZD7648
  IC50, cell viability 72 h: > 10 µM
Taselisib
  IC50, cell viability 72 h: 2.58 µM
Selumetinib
  IC50, cell viability 72 h: > 10 µM
SRA737
  IC50, cell viability 72 h: > 10 µM
MK-2206
  IC50, cell viability 72 h: > 10 µM
Gemcitabine
  IC50, cell viability 72 h: 0.0147 µM
[1]
  IC50, cell viability 72 h: > 5 µM
Olaparib
  IC50, cell viability 72 h: > 10 µM
5-Fluorouracil
  IC50, cell viability 72 h: 4.54 µM

## SK-MEL-24 (Melanoma)
Carboplatin
  IC50, cell viability 72 h: > 10 µM
AZD5363
  IC50, cell viability 72 h: > 10 µM
AZD1775
  IC50, cell viability 72 h: > 3 µM
Trametinib
  IC50, cell viability 72 h: 0.0463 µM
Paclitaxel
  IC50, cell viability 72 h: 0.738 µM
Palbociclib
  IC50, cell viability 72 h: > 10 µM
AZD1390
  IC50, cell viability 72 h: > 0.3 µM
Venetoclax
  IC50, cell viability 72 h: > 1 µM
Dasatinib
  IC50, cell viability 72 h: > 2 µM
SG3199
  IC50, cell viability 72 h: > 0.001 µM
AZD2811
  IC50, cell viability 72 h: > 1 µM
SN-38
  IC50, cell viability 72 h: 0.0239 µM
AZD0156
  IC50, cell viability 72 h: > 3 µM
AZD4320
  IC50, cell viability 72 h: > 1 µM
Alisertib
  IC50, cell viability 72 h: > 10 µM
Etoposide
  IC50, cell viability 72 h: > 10 µM
Gefitinib
  IC50, cell viability 72 h: > 10 µM
Prexasertib
  IC50, cell viability 72 h: 0.575 µM
Doxorubicin
  IC50, cell viability 72 h: 0.701 µM
AZD5153
  IC50, cell viability 72 h: > 1 µM
Lapatinib
  IC50, cell viability 72 h: > 10 µM
AZD8186
  IC50, cell viability 72 h: > 10 µM
Crizotinib
  IC50, cell viability 72 h: > 10 µM
Savolitinib
  IC50, cell viability 72 h: > 1 µM
AZD6738
  IC50, cell viability 72 h: > 10 µM
AZD5991
  IC50, cell viability 72 h: > 1 µM
AZD7648
  IC50, cell viability 72 h: > 10 µM
Taselisib
  IC50, cell viability 72 h: 5 µM
Selumetinib
  IC50, cell viability 72 h: 2.77 µM
SRA737
  IC50, cell viability 72 h: > 10 µM
MK-2206
  IC50, cell viability 72 h: > 10 µM
Gemcitabine
  IC50, cell viability 72 h: 0.193 µM
[1]
  IC50, cell viability 72 h: 3.27 µM
Olaparib
  IC50, cell viability 72 h: > 10 µM
5-Fluorouracil
  IC50, cell viability 72 h: > 20 µM
